Laboratory results reported in US10752626B2, “Iso-citrate dehydrogenase (IDH) inhibitor” (SHANGHAI METON PHARMACEUTICAL CO., LTD, priority 2016, dated 2020).

Target: IDH1 R132C (Homo sapiens (Human), UniProt O75874, R132C)
Assay: Biochemical assay for inhibition of mutant IDH1 R132C
Conditions: tested in triplet
Source text: The present disclosure provides a biochemical assay method for detecting the IDH inhibition and selectivity of the compounds by detecting IDH enzyme activity directly.
Wild-type IDH enzyme could convert NADP^+ to NADPH when it catalyzes the α-KG producing reaction. Mutant IDH enzyme could convert NADPH to NADP^+ when it catalyzes the D-2-HG producing reaction. So the activity of wild-type and mutant IDH1/2 could be measured by monitoring NADPH level change: in the reaction catalyzed by wild-type IDH1/2, the newly generated NADPH is utilized instantly by coupled diaphorase-resazurin reaction to generate resorufin which is fluorescent (at Excitation 544 nm, Emission 590 nm) and thus NADPH is monitored indirectly; while in the reaction catalyzed by mutant IDH1/2, NADPH is directly monitored as it is fluorescent (at Excitation 340 nm, Emission 460 nm). By monitoring the change of NADPH level in the reaction, the enzyme activity could be determined rapidly and efficiently, IC50 of a compound could also be assayed.
The test compounds were prepared into 50 mM stock solutions in DMSO and stored at −20° C. Each test compound stock was further diluted to obtain a 100× stock solution at a concentration of 200 μM, 100 μM, 50 μM, 25 μM, 12.5 jμM, 6.25 μM and 3.125 μM, respectively, for the final use on the day of test.
Inhibition of Mutant IDHJ (R132H or R132C):
Solution A was prepared by combining 1 M Tris-HCl pH7.5 (300 μL), 5 M NaCl (450 μL), 1 M MgCl2 (150 μL), 1 M DTT (15 μL), 20 mg/mL BSA (37.5 μL), 20 mM NADPH (20 μL), and 0.5 mM α-KG (40 μL), followed by adding deionized water to a final volume of 15 mL.
Reaction buffer was prepared by combining 1 M Tris-HCl pH 7.5 (200 μL), 5 M NaCl (300 μL), 1 M MgCl2 (100 μL), 1 M DTT (10 μL) and 20 mg/mL BSA (25 μL), followed by adding deionized water to a final volume of 10 mL.
Solution B was prepared by combining the reaction buffer (5 mL) and […] IDH1-R132H (5.21 μL) or 107 μM IDH1-R132C (4.67 μL).
148 μL Solution A was added into each sample well of a 96-well plate P1, and then 2 μL of the test compound solution at each concentration and 2 μL of DMSO (negative control/blank) were added into individual sample well respectively. 50 μL of Solution B was added into each of the sample wells having test compounds and one sample well having DMSO only, and 50 μL of reaction buffer was added into another sample well having DMSO only, respectively. P1 was put into BioTek Synergy H4 Microplate reader (BioTek Instruments Inc., Winooski, U.S.), and the program was set as follows: 37° C., shake plate 5 seconds, run kinetic mode, total detection time 20 min, detection intervals 40 seconds, detection mode fluorescence (at Excitation 340 nm, Emission 460 nm). The data were exported, the relative enzyme activity and the half-maximal inhibitory concentration (IC50) for the test compound were calculated. Relative enzyme activity was calculated as the absolute value of the slope of the Emission 460 reads of each well plotted against time (which represents the conversion rate of ca-KG to 2-HG through IDH1 modulated utilization of NADPH). The Dose-response curve was drawn and the IC50 was calculated via fitting. The IDH inhibition and selectivity of each test compound can be evaluated according to the effect of the compounds on the IDH enzyme activity.
The IDH inhibition activity of the compounds were assessed according to Test 5 of the Biological evaluation section. The test for mutant IDH1 R132H/R132C inhibition of each compound was carried out in triplet. For IDH1 R132H, the enzyme activity of exemplary Compounds 16, 21, 22, 23, 24 and 31 is plotted as a function of logarithm of the concentration of the compound in FIGS. 8A-8C, 9A-9C, 10A-10C, 11A-11C, 12A-12C and 13A-13C, respectively. […]

Chain of IDH1 R132C (O75874 whole entry R132C): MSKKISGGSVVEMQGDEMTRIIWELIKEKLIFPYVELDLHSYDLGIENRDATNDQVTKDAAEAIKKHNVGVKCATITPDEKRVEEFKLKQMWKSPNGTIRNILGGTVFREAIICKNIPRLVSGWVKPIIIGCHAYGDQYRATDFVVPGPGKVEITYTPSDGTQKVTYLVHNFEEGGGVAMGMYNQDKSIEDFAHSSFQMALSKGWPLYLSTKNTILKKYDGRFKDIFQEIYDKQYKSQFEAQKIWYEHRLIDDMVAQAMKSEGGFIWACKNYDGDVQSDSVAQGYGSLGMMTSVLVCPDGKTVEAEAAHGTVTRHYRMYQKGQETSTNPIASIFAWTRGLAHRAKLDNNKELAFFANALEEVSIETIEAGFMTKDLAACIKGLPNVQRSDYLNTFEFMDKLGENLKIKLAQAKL

| Compound | IC50 [nM] |
| --- | --- |
| CCN1Cc2c(ccnc2N[C@@H](C)c2ccc(Oc3ccc(C)cc3)cc2)C1=O [Compound 16, (S)-2-ethyl-4-(1-(4-(p-tolyloxy)phenyl)ethylamino)-2,3-dihydro-1H-pyrrolo [3,4-c]pyridin-1-one] | < 1500 |
| CCN1Cc2c(ccnc2N[C@@H](C)c2ccc(Oc3ccccc3)c(F)c2)C1=O [Compound 23, (S)-2-ethyl-4-((1-(3-fluoro-4-phenoxyphenyl)ethyl)amino)-2,3-dihydro-1H-pyrrolo[3,4-c]pyridin-1-one] | < 1500 |
